Read-outs that look alike come from different tables or passages of the source.
Legend:
[1] = target: EGFR WT kinase (Homo sapiens (Human), UniProt P00533); assay: Wild type EGFR kinase inhibition test (z-lyte); format: biochemical; conditions: 10 μM ATP
[2] = test system: NIH3T3 cells; assay: Cytotoxicity by MTT method, NIH3T3 cells; format: cell-based; conditions: read-out: NIH3T3 cells MTT assay (IC50/nM);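 further: cells grown in 96-well plates with compound for 72 h, then given MTT for a further 4 h at 37 °C under 5% CO2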
[3] = test system: H1975 cells; assay: ELISA screening EGFR T790M inhibitor for cell activity, H1975 cells; format: cell-based; conditions: ELISA; for IC50: compound 1 h, read-out: H1975 cells (IC50/nM); for Selective inhibitory activities of target on cellular level [IC50 (A431 cells)/IC50 (H1975 cells)]: ratio of IC50 values
[4] = test system: A431 cells; assay: ELISA cell activity, EGF-stimulated A431 cells; format: cell-based; conditions: ELISA, compound 1 h then EGF 45 minutes, read-out: A431 cells (IC50/nM);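 further: Serum-starved A431 cells pretreated with compound for 1 h, then stimulated with EGF for 45 min, lysates read by ELISA (OD450 minus OD570), EGF-only wells as control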
[5] = test system: H1975 cells; assay: Cytostatic activity by MTT method, H1975 cells; format: cell-based; conditions: read-out: H1975 cells (IC50/nM)
[6] = Mus musculus, NIH3T3, cytotoxicity, MTT, 72 h

EGFR WT kinase, sequence (P00533 25-1210): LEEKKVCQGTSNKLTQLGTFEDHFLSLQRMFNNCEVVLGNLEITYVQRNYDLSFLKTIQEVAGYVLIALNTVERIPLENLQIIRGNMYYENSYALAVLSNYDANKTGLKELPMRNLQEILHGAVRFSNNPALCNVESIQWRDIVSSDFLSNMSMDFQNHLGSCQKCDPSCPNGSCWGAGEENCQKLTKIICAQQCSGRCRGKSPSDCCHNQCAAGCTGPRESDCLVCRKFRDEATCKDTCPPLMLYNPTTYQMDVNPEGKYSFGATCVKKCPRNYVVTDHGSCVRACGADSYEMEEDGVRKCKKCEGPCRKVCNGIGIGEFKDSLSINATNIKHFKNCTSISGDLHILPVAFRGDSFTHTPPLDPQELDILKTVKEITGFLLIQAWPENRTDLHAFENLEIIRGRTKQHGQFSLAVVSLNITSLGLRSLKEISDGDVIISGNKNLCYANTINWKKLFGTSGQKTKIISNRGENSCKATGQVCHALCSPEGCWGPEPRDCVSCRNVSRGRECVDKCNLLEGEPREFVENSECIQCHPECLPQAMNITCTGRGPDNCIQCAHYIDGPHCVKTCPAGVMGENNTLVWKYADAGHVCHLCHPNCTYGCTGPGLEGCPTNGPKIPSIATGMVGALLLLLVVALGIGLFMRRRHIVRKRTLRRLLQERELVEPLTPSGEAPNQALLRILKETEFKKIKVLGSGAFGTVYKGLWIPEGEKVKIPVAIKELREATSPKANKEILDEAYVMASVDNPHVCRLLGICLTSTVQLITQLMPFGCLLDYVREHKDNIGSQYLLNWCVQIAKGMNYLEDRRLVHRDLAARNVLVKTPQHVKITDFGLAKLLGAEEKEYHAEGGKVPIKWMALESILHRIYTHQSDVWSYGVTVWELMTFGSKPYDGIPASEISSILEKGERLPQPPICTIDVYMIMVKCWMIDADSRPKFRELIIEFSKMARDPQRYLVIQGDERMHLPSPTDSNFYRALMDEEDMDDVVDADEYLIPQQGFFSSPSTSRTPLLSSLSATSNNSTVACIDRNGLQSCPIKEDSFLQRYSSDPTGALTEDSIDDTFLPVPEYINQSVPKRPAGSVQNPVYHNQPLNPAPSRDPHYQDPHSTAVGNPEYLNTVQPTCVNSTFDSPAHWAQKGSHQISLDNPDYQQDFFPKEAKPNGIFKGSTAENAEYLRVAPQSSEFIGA

Compound | IC50 [1] | Selective inhibitory activities of target on cellular level [IC50 (A431 cells)/IC50 (H1975 cells)] [3] | IC50 ([2]; cytotoxicity, MTT, 72 h) | also measured
C=CC(=O)Nc1cc(Nc2ncc(Cl)c(-c3cnc4c(ccn4C)c3)n2)c(OC)cc1N(C)CCN(CC)CC [Compound Z-110] | – | – | 6840 nM | –
C=CC(=O)Nc1cc(Nc2ncc(Cl)c(-c3cnc4c(ccn4C)c3)n2)c(OC)cc1N1CC(N(C)C)C1 [Compound Z-113] | 121 nM | 22.8 | 5320 nM | IC50 [3]: 99 nM; IC50 [4]: 2250 nM
C=CC(=O)Nc1cc(Nc2ncc(Cl)c(-c3cnc4c(ccn4C)c3)n2)c(OC)cc1N1CCN(C)CC1 [Compound Z-3, N-(5-(5-chloro-4-(1-methyl-1H-pyrrolo[2,3-b]pyridin-5-yl)pyrimidin-2-amino)-4-methoxy-2-(4-methylpiperazin-1-yl)phenyl)acrylamide] | – | – | – | IC50 [2, 6]: 8160 nM
C=CC(=O)Nc1cc(Nc2nccc(-c3cnn(C)c3)n2)c(OC)cc1N1CCC(N(C)C)CC1 [Compound Z-17, N-(2-(4-(dimethylamino)piperidin-1-yl)-4-methoxy-5-((4-(1-methyl-1H-pyrazol-4-yl)pyrimidin-2-yl)amino)phenyl)acrylamide] | – | – | – | IC50 ([3]; Homo sapiens, NCI-H1975): 77 nM; IC50 ([4]; Homo sapiens, A-431): 3080 nM
CN(C)C/C=C/C(=O)Nc1cc2c(Nc3ccc(F)c(Cl)c3)ncnc2cc1O[C@H]1CCOC1 [BIBW2992, Afatinib, reference compound] | – | – | – | IC50 ([5]; Homo sapiens, NCI-H1975, 72 h): 88 nM; IC50 ([2]; Mus musculus, NIH3T3, 72 h): 2750 nM
C=CC(=O)Nc1cc(Nc2ncc(Cl)c(-c3cnc4c(ccn4C)c3)n2)c(OC)cc1N(C)CCN(C)C [Compound Z-1, N-(5-(5-chloro-4-(1-methyl-1H-pyrrolo[2,3-b]pyridin-5-yl)pyrimidin-2-amino)-2-((2-(dimethylamino)ethyl)methylamino)-4-methoxyphenyl)acrylamide] | 25 nM | 15.7 | 6590 nM | IC50 [3]: 30 nM; IC50 [4]: 471 nM
C=CC(=O)Nc1cc(Nc2nccc(-c3cnc4c(c3)c(Cl)cn4C)n2)c(OC)cc1N(C)CCN(C)C [Compound Z-54] | – | – | – | IC50 ([5]; MTT, 72 h): 3 nM; IC50 [3]: 4 nM
C=CC(=O)Nc1cc(Nc2ncc(F)c(-c3cnc4c(ccn4C)c3)n2)c(OC)cc1N1CCC(N(C)C)CC1 [Compound Z-29] | 118 nM | – | – | –
C=CC(=O)Nc1cc(Nc2ncc(Cl)c(-c3cnc4c(ccn4C)c3)n2)c(OC)cc1N(C)CCCN(C)C [Compound Z-111] | – | – | 4010 nM | –
C=CC(=O)Nc1cc(Nc2ncc(Cl)c(-c3cnn(C)c3C)n2)c(OC)cc1N1CCC(N(C)C)CC1 [Compound Z-97, N-(5-(5-chloro-4-(1,5-dimethyl-1H-pyrazol-4-yl)pyrimidin-2-ylamino)-2-(4-(dimethylamino)piperidin-1-yl)-4-methoxyphenyl)acrylamide] | 341 nM | 72.1 | – | IC50 ([3]; Homo sapiens, NCI-H1975): 104 nM; IC50 ([4]; Homo sapiens, A-431): 7500 nM
C=CC(=O)Nc1cc(Nc2ncc(Cl)c(-c3cnn(C(F)F)c3)n2)c(OC)cc1N1CCC(N(C)C)CC1 [Compound Z-101, N-(5-(5-chloro-4-(1-(difluoromethyl)-1H-pyrazol-4-yl)pyrimidin-2-ylamino)-2-(4-(dimethylamino)piperidin-1-yl)-4-methoxyphenyl)acrylamide] | – | – | – | IC50 ([5]; Homo sapiens, NCI-H1975, MTT, 72 h): 43 nM; IC50 [2, 6]: 3430 nM
C=CC(=O)Nc1cc(Nc2ncc(Cl)c(-c3cnc4c(cnn4C)c3)n2)c(OC)cc1N1CCC(N(C)C)CC1 [Compound Z-40] | 233 nM | 30.5 | – | IC50 [3]: 70 nM; IC50 [4]: 2140 nM
C=CC(=O)Nc1cc(Nc2ncc(Cl)c(-c3cnc4c(ccn4C)c3)n2)c(OC)cc1NCCCN(C)C [Compound Z-114] | 116 nM | – | 8280 nM | –
C=CC(=O)Nc1cc(Nc2ncc(F)c(-c3cnn(C)c3)n2)c(OC)cc1N(C)CCN(C)C [Compound Z-93, N-(2-((2-(dimethylamino)ethyl)(methyl)amino)-5-(5-fluoro-4-(1-methyl-1H-pyrazol-4-yl)pyrimidin-2-ylamino)-4-methoxyphenyl)acrylamide] | – | – | – | IC50 [2, 6]: > 10000 nM
C=CC(=O)Nc1cc(Nc2nccc(-c3cnc4[nH]ccc4c3)n2)c(OC)cc1N1CC(N(C)C)C1 [Compound Z-33] | – | – | > 10000 nM | –
C=CC(=O)Nc1cc(Nc2nccc(-c3cnn(C)c3)n2)c(OC)cc1N(C)CCN(C)C [Compound Z-18, N-(2-((2-(dimethylamino)ethyl)(methyl)amino)-4-methoxy-5-((4-(1-methyl-1H-pyrazol-4-yl)pyrimidin-2-yl)amino)phenyl)acrylamide] | 197 nM | – | – | –

Second part, led by results:

IC50 [1] | Selective inhibitory activities of target on cellular level [IC50 (A431 cells)/IC50 (H1975 cells)] [3] | Compound | IC50 ([2]; cytotoxicity, MTT, 72 h) | also measured
35 nM | – | C=CC(=O)Nc1cc(Nc2ncc(OC)c(-c3cnc4c(cnn4C)c3)n2)c(OC)cc1N1CCC(N(C)C)CC1 [Compound Z-38] | > 10000 nM | –
45 nM | – | C=CC(=O)Nc1cc(Nc2nccc(-c3cnc4c(cnn4C)c3)n2)c(OC)cc1N1CCC(N(C)C)CC1 [Compound Z-4, N-(2-(4-(dimethylamino)piperidin-1-yl)-4-methoxy-5-(4-(1-methyl-1H-pyrazolo[3,4-b]pyridin-5-yl)pyrimidin-2-ylamino)phenyl)acrylamide] | – | –
28 nM | 5.1 | C=CC(=O)Nc1cc(Nc2ncc(Cl)c(-c3cnc4c(ccn4C)c3)n2)c(OC)cc1N(C)CCN(C)CC [Compound Z-109] | 6000 nM | IC50 [3]: 85 nM; IC50 [4]: 434 nM
37 nM | – | C=CC(=O)Nc1cc(Nc2ncc(Cl)c(-c3cnc4c(ccn4C)c3)n2)c(OC)cc1N(C)CCNC [Compound Z-116] | > 10000 nM | –
114 nM | – | C=CC(=O)Nc1cc(Nc2nccc(-c3cnc4c(ccn4C)c3)n2)c(OC)cc1N1CCN(C)CC1 [Compound Z-26] | > 10000 nM | –
8 nM | 6.8 | C=CC(=O)Nc1cc(Nc2nccc(-c3ccc4c(ccn4C)c3)n2)c(OC)cc1N(C)CCN(C)C [Compound Z-87] | – | IC50 [3]: 31 nM; IC50 [4]: 210 nM
9 nM | 10.3 | C=CC(=O)Nc1cc(Nc2ncc(OC)c(-c3cnc4c(ccn4C)c3)n2)c(OC)cc1N(C)CCN(C)C [Compound Z-21, N-(2-((2-(dimethylamino)ethyl)(methyl)amino)-4-methoxy-5-((5-methoxy-4-(1-methyl-1H-pyrrolo[2,3-b]pyridin-5-yl)pyrimidin-2-yl)amino)phenyl)acrylamide] | – | IC50 ([3]; Homo sapiens, NCI-H1975): 11 nM; IC50 ([4]; Homo sapiens, A-431): 113 nM
14 nM | – | C=CC(=O)Nc1cc(Nc2ncc(Cl)c(-c3cnc4c(c3)c(Cl)cn4C)n2)c(OC)cc1N(C)CCN(C)C [Compound Z-121] | 8530 nM | –
4 nM | – | C=CC(=O)Nc1cc(Nc2ncc(C(=O)OC)c(-c3cnc4c(ccn4C)c3)n2)c(OC)cc1N(C)CCN(C)C [Compound Z-32] | > 10000 nM | –
22 nM | 6.3 | C=CC(=O)Nc1cc(Nc2nccc(-c3cnc4c(ccn4C)c3)n2)c(OC)cc1N(C)CCN1CCCC1 [Compound Z-112] | > 10000 nM | IC50 [3]: 77 nM; IC50 [4]: 486 nM
4 nM | 7.6 | C=CC(=O)Nc1cc(Nc2ncc(F)c(-c3cnc4c(ccn4C)c3)n2)c(OC)cc1N(C)CCN(C)C [Compound Z-20, N-(2-((2-(dimethylamino)ethyl)(methyl)amino)-5-((5-fluoro-4-(1-methyl-1H-pyrrolo[2,3-b]pyridin-5-yl)pyrimidin-2-yl)amino)-4-methoxyphenyl)acrylamide] | – | IC50 ([3]; Homo sapiens, NCI-H1975): 22 nM; IC50 ([4]; Homo sapiens, A-431): 167 nM
25 nM | – | C=CC(=O)Nc1cc(Nc2ncc(F)c(-c3cnc4c(c3)c(Cl)cn4C)n2)c(OC)cc1N1CCC(N(C)C)CC1 [Compound Z-122] | – | –
6 nM | – | C=CC(=O)Nc1cc(Nc2ncc(F)c(-c3cnc4c(ccn4C)c3)n2)c(OC)cc1OCCN(C)C [Compound Z-118] | 3320 nM | –
89 nM | 8.4 | C=CC(=O)Nc1cc(Nc2ncc(F)c(-c3cnc4c(cnn4C)c3)n2)c(OC)cc1N1CCC(N(C)C)CC1 [Compound Z-37] | – | IC50 [3]: 57 nM; IC50 [4]: 481 nM
61 nM | – | C=CC(=O)Nc1cc(Nc2nccc(-c3cnc4c(ccn4C)c3)n2)c(OC)cc1N1CCC(N(C)C)CC1 [Compound Z-25] | 6910 nM | –
41 nM | 10.3 | C=CC(=O)Nc1cc(Nc2ncc(Cl)c(-c3cnn(C4CCNCC4)c3)n2)c(OC)cc1N1CCC(N(C)C)CC1 [Compound Z-96, N-(5-(5-chloro-4-(1-(piperidin-4-yl)-1H-pyrazol-4-yl)pyrimidin-2-ylamino)-2-(4-(dimethylamino)piperidin-1-yl)-4-methoxyphenyl)acrylamide] | – | IC50 ([3]; Homo sapiens, NCI-H1975): 94 nM; IC50 ([4]; Homo sapiens, A-431): 969 nM
11 nM | 24.9 | C=CC(=O)Nc1cc(Nc2ncc(Cl)c(-c3ccc4c(ccn4C)c3)n2)c(OC)cc1N(C)CCN(C)C [Compound Z-88] | – | IC50 [3]: 18 nM; IC50 [4]: 449 nM
105 nM | – | C=CC(=O)Nc1cc(Nc2nccc(-c3cnc4c(cnn4C)c3)n2)c(OC)cc1N1CCN(C)CC1 [Compound Z-5, N-(4-methoxy-5-(4-(1-methyl-1H-pyrazolo[3,4-b]pyridin-5-yl)pyrimidin-2-ylamino)-2-(4-methylpiperazin-1-yl)phenyl)acrylamide] | – | –
